This is an account of results in publication PMC9749988 (PLOS ONE, 2022).

Like-named read-outs stand apart in the source and are kept apart here.

Broadly, the Kd is the equilibrium constant for the complex coming apart.

One data set has as its target T1, A1R (Mus musculus, UniProt Q60612).
T1 construct: To obtain the P1 fraction, cerebral cortex and spinal cord were homogenized in chilled sucrose; from tissue; host or cells: cerebral cortex and spinal cord membranes (P1 fraction) of SOD1-G93A transgenic and WT B6SJL mice
T1 sequence (Q60612 1-326): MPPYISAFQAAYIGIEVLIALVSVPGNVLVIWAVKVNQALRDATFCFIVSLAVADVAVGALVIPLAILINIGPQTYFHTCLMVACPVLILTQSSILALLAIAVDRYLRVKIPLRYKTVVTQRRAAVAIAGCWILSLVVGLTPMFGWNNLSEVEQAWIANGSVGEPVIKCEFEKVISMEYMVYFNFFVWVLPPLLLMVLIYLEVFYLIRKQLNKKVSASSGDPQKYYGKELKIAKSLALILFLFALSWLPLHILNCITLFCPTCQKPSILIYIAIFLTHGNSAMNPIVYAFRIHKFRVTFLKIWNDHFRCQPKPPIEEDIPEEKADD
It is filed as binding. Conditions: mean ± SEM, read-out: DPCPX equilibrium dissociation constant (KD). Here is the method: The radioligand-binding experiments were performed as previously described with membrane fractions (total membranes, P1 fraction). To obtain the P1 fraction, cerebral cortex and spinal cord were homogenized in chilled sucrose (pH 7.6), centrifuged at 3000 g, the pellet discarded, and the supernatant centrifuged at 14000 g (P1 fraction). The P1 fraction was then resuspended in sucrose (pH 7.6). Protein quantification was done with DC™ Protein Assay kit (Bio-Rad Laboratories, CA, USA), with bovine serum albumin (BSA) as the reference standard. […] Non-specific binding was measured in the presence of 2 μM of Xanthine Amine Congener (XAC, Tocris Bioscience, Bristol, United Kingdom), and the resulting values were subtracted from those obtained with [^3H]DPCPX to determine the specific binding and normalized for protein concentration. Results are expressed as femtomole per mg of total protein (fmol/mg).

In the next data set the test system is BDNF. Briefly: BDNF protein levels by ELISA after chronic caffeine treatment. It is filed as in vivo, mouse. Particulars: caffeine 0.3mg/ml in drinking water from 11 weeks, mean ± SEM. Here is the method:
(§1) Cortex and spinal cord samples were homogenized in […] (RIPA) lysis buffer (1M Tris pH 8.0, 0.5M EDTA pH 8.0, 5M NaCl, 10% NP-40, 50% Glycerol), supplemented with cOmpleteTM Mini protease inhibitor cocktail tablets (Roche, Penzberg, Germany) and centrifuged. Protein quantification was performed using the DC™ Protein Assay kit (Bio-Rad Laboratories, Hercules, CA, USA). VEGFA, VEGFR-1 and VEGFR-2 protein levels were quantified with the DuoSet® ELISA Development System Kit (R&D Systems, Abingdon, UK), according to manufacturer instructions. Assessment of VEGFB protein levels was performed with the Mouse VEGFB ELISA Kit (Thermo Scientific, Massachusetts, USA), also according to manufacturer instructions. […] To improve BDNF detection, samples were acidified with HCl 1M, until reaching approximately pH 2.6. After 10 to 20 minutes, NaOH was added to neutralize the samples to pH 7.6. Absorbances were read in a microplate reader (Microplate Reader TECAN Infinite M200, Männedorf, Switzerland) at 450nm and 540nm, with the latter being subtracted to the former with the goal of correcting for differences in plate background. Results are expressed as picograms per milligram of total protein (pg/mg).
(§2) During the experimental period, animals had ad libitum access to water, independently of treatment group. […] After 5–7 weeks of treatment, mice were sacrificed, cortex and spinal cord samples were removed and snap frozen in liquid nitrogen. All samples were kept at -80°C for posterior analysis.
On the technique in general: An ELISA detects its analyte on a solid surface through an enzyme-linked reagent.

Another data set deals with VEGFA. Briefly: VEGFA protein levels by ELISA after chronic caffeine treatment. Particulars: for VEGFA protein levels: caffeine 0.3mg/ml in drinking water from 11 weeks, mean ± SEM. It is filed as in vivo, mouse. Here is the method: as §1, §2
Data set [1] in a line: Changes in animal body weight during chronic caffeine treatment (AUC of weight change). It is filed as in vivo, mouse. Conditions: for Area under the curve (AUC) of change in body weight: caffeine 0.3mg/ml in drinking water from 11th to 16-18th week of age, weight change vs first day of administration (PND 72), mean ± SEM; for Weight gain compared to vehicle treatment: caffeine 0.3mg/ml in drinking water. Here is the method:
as §2
Animal body weight was monitored throughout the chronic drug administration experiments, with animals being weighed once every 2 to 3 days. We used weight changes a proxy of the disease state, as it was described that SOD1^G93A mice show a gradual loss of weight through time, and that these correlate with other disease states indicators. We decided not to use behavioral data (eg RotaRod performance) to avoid changes in protein levels or expression due to physical exercise, which would have even more impact in SOD1^G93A mice than in WT, thus introducing an additional variable and therefore making comparisons more difficult.
Because SOD1^G93A tend to generally weight less than their WT counterparts, group comparisons of absolute weight were deemed inadequate. As such, changes in the body weight of each animal were calculated by subtracting the weight of that animal on the first day of drug administration (72nd day of life) to its weight at each subsequent time-point, with results being expressed in grams. To facilitate comparison of treatment effects, the area under the curve (AUC) of these changes in weight was obtained.

The subject of another data set is VEGFR-2. The experiment in a line: VEGFR-2 protein levels by ELISA after chronic caffeine treatment. It is filed as in vivo, mouse. Conditions: caffeine 0.3mg/ml in drinking water from 11 weeks, mean ± SEM. Here is the method:
as §1
After 5–7 weeks of treatment, mice were sacrificed, cortex and spinal cord samples were removed and snap frozen in liquid nitrogen. All samples were kept at -80°C for posterior analysis.

Another data set has as its system VEGFR-1. The experiment in a line: VEGFR-1 protein levels by ELISA after chronic caffeine treatment. It is filed as in vivo, mouse. Particulars: caffeine 0.3mg/ml in drinking water from 11 weeks, mean ± SEM. Here is the method: as §1, §2
A further data set deals with VEGFB. Briefly: VEGFB protein levels by ELISA after chronic caffeine treatment. It is filed as in vivo, mouse. Conditions: caffeine 0.3mg/ml in drinking water from 11 weeks, mean ± SEM. The protocol: as §1, §2
In data set [2] the test system is SOD1^G93A mice. Particulars: cited from earlier work.
Data set [3] concerns SOD1^G93A mice. Conditions: caffeine 0.3mg/ml in drinking water from 11th week of age.
A short description of data set [4]: Water intake during chronic caffeine treatment. It is filed as in vivo. Particulars: WT and SOD1^G93A mice; tap water or caffeine (0.3mg/ml); approximately 5–6 mL per day per mouse. The protocol:
as §2

Take `CCCn1c(=O)c2[nH]c(C3CCCC3)nc2n(CCC)c1=O` [DPCPX, [^3H]-8-Cyclopentyl-1,3-dipropylxanyine]: the Kd was found to be 3.1 ± 1.55 nM at A1R (cortex, WT mice age-matched to pre-symptomatic (4–6 weeks old)); 7.98 ± 1.01 nM at A1R (cortex, WT mice age-matched to symptomatic (12–14 weeks old)); 4.97 ± 1.07 nM at A1R (cortex, pre-symptomatic SOD1^G93A mice (4–6 weeks old)); 4.43 ± 0.821 nM on A1R (cortex, symptomatic SOD1^G93A mice (12–14 weeks old)); 15 ± 3.83 nM at A1R (spinal cord, WT mice age-matched to pre-symptomatic (4–6 weeks old)); 4.32 ± 0.924 nM on A1R (spinal cord, WT mice age-matched to symptomatic (12–14 weeks old)). For the same compound, the dissociation constant (Kd) stood at 12 ± 4.55 nM at A1R (spinal cord, pre-symptomatic SOD1^G93A mice (4–6 weeks old)) and 11.1 ± 3.47 nM at A1R (spinal cord, symptomatic SOD1^G93A mice (12–14 weeks old)).
On to `Cn1c(=O)c2c(ncn2C)n(C)c1=O` [caffeine], for which the BDNF protein levels was determined as 13.85 ± 2.372 pg/mg protein with BDNF (cortex, SOD1^G93A mice 16–18 weeks old, SOD-VEH 29.75 ± 4.560, p = 0.042); 40.24 ± 6.342 pg/mg protein in the data set with BDNF (cortex, WT mice 16–18 weeks old, WT vehicle 20.96 ± 1.403, p = 0.020); 49.10 ± 10.82 pg/mg protein with BDNF (spinal cord, SOD1^G93A mice 16–18 weeks old, SOD-VEH 19.34, p = 0.038, high variability); 14.37 ± 4.488 pg/mg protein in the data set with BDNF (spinal cord, WT mice 16–18 weeks old). In addition, the “Effect of caffeine upon VEGFA protein levels” value with VEGFA (cortex, WT and SOD1^G93A mice 16–18 weeks old, caffeine 0.3mg/ml in drinking water) is listed as “absence of effect”. The VEGFA protein levels with VEGFA (cortex, WT mice 16–18 weeks old, WT-VEH 3.62) is on record as 2.05 ± 0.324 pg/mg protein; in the data set on VEGFA (spinal cord, SOD1^G93A mice 16–18 weeks old, SOD-VEH 4.151 ± 0.820), 3.743 ± 1.018 pg/mg protein; in the data set with VEGFA (spinal cord, WT mice 16–18 weeks old, WT-VEH 2.798), 3.774 ± 0.451 pg/mg protein. The “Area under the curve (AUC) of change in body weight” value amounted to 22.70 ±3.795 in data set [1] (SOD1^G93A mice, SOD-VEH 12.90 ± 3.033) and 83.40 ± 4.743 in data set [1] (WT mice, WT-VEH 71.20 ± 2.011). Besides, the “Weight gain compared to vehicle treatment” value in [1] (SOD1^G93A mice, not statistically significant (p = 0.058)) is recorded as “trend towards an increase in weight gain”; in data set [1] (WT mice, p = 0.039) it was “small but statistically significant increase in weight gain”. Further, the VEGFR-2 protein levels in the data set on VEGFR-2 (cortex, SOD1^G93A mice 16–18 weeks old, SOD-VEH 45.41 ± 5.938) is given as 50.51 ± 6.925 pg/mg protein; in the data set on VEGFR-2 (cortex, WT mice 16–18 weeks old, WT-VEH 45.14 ± 4.019), 39.02 ± 4.077 pg/mg protein; in the data set on VEGFR-2 (spinal cord, WT mice 16–18 weeks old, WT-VEH 108 ± 32.5), 121 ± 40.6 pg/mg protein. Besides, the VEGFR-1 protein levels in the data set on VEGFR-1 (cortex, SOD1^G93A mice 16–18 weeks old, SOD-VEH 905.1 ± 30.64) is reported as 926.5 ± 89.92 pg/mg protein; in the data set with VEGFR-1 (cortex, WT mice 16–18 weeks old, WT-VEH 1078 ± 90.79), 1004 ± 146.9 pg/mg protein; in the data set on VEGFR-1 (spinal cord, SOD1^G93A mice 16–18 weeks old, SOD-VEH 919.3 ± 50.34) it was 1048 ± 115.2 pg/mg protein. Moreover, the VEGFB protein levels in the data set with VEGFB (cortex, SOD1^G93A mice 16–18 weeks old, SOD-VEH 164.7 ± 10.79) is on record as 157.8 ± 13.94 pg/mg protein; with VEGFB (cortex, WT mice 16–18 weeks old, WT-VEH 166.8 ± 20.91) it was 170.7 ± 33.07 pg/mg protein; in the data set with VEGFB (spinal cord, SOD1^G93A mice 16–18 weeks old, SOD-VEH 545.6 ± 35.13), 545.3 ± 55.72 pg/mg protein; in the data set on VEGFB (spinal cord, WT mice 16–18 weeks old, WT-VEH 366.0 ± 64.68) it was 366.5 ± 90.97 pg/mg protein. Further, the “Effect on ALS symptoms” value in the data set on SOD1^G93A mice [2] is “exacerbates ALS symptoms”. Further, the “Symptoms on visual inspection” value in the data set with SOD1^G93A mice [3] is recorded as “trend to symptoms aggravation”. In the data set on SOD1^G93A mice [3], the “Time to humane endpoint (onset of hindlimb paresis) vs vehicle treated SOD1^G93A mice” value was “slightly earlier”. Moreover, in data set [4], the “Water intake, difference between treatment groups” value was “No substantial differences”.
